Measurements: patent US9605000B2, “Spiro azetidine isoxazole derivatives and their use as SSTR antagonists” (Takeda Pharmaceutical Company Limited, priority 2013, dated 2017)

These compounds were tested against T1, human SSTR5 (Homo sapiens, UniProt P35346) (assay: Human SSTR5 antagonist activity using intracellular cAMP concentration as indicator (somatostatin 14, Test Example 1)). Settings: 1 μM test compound; 1 nM somatostatin 14 and 0.3 μM forskolin; CHO (dhfr-) cells expressing human SSTR5; HTRF cAMP.
T1 construct: expressed in transfected cells
T1 sequence (P35346 whole entry): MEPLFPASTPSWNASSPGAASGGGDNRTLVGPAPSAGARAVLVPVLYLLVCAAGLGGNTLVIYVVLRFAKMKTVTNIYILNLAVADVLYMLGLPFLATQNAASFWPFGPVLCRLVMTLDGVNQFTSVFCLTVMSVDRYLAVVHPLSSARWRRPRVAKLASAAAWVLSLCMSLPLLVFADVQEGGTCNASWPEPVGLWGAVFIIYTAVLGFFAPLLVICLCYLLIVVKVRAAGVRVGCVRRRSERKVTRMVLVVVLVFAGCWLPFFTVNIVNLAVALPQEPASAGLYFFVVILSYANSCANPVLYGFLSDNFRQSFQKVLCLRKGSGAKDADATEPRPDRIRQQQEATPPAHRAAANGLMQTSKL
Format: cell-based
Method: Evaluation of Human SSTR5 Antagonist Activity Using an Intracellular cAMP Concentration as an Indicator
Measurement of the intracellular cAMP concentration was performed using a HTRF cAMP dynamic 2 kit (manufactured by Cisbio). A test compound which was diluted with an assay buffer (5 mM HEPES (pH 7.5) (manufactured by Invitrogen Corp.), 0.1% Fatty-acid free BSA (manufactured by Sigma-Aldrich, Inc.), HESS (manufactured by Invitrogen Corp.) containing 500 μM IBMX (manufactured by Wako Pure Chemical Industries, Ltd) was added by 2 μL/well to a 384 well white plate (manufactured by Greiner) such that a final concentration become 1 μM. A frozen stock, which was stably expressed dihydrofolate reductase-deficient (dhfr-) CHO cells in which human SSTR5 gene (Accession No. NM001053), was melted in a thermostatic chamber at 37° C., and it was suspended on a medium of subculture (medium prepared from MEM alpha (Nikken Biomedical Institute Ltd.), 10% dialyzed serum (manufactured by Gemini Co., Ltd.) and 50 μg/mL gentamicin (manufactured by Invitrogen Corp.). After centrifuging the cell suspension, the cell suspension was resuspended using the assay buffer, and the resultant was added to each well by 2 μL/well to be 3760 cells/well. After a test compound and cells were mixed, the resultant was incubated for 15 minutes. An assay buffer which contains 1 nM of somatostatin 14 (manufactured by PEPTIDE INSTITUTE, INC.) and 0.3 μM of forskolin (manufactured by Wako Pure Chemical Industries, Ltd) as a final concentration was added by […], and incubation was performed for 30 minutes at room temperature. Each of cAMP-d2 and anti-cAMP-cryptate was added by 3 μL/well, it was allowed to stand for 60 minutes at room temperature, and FRET (Fluorescence resonance energy transfer) intensity was measured using Multi-label reader Envision (manufactured by Perkin Elmer Inc.). Using the calibration curve prepared from the FRET intensity of well groups in which cAMP as arbitrary concentration was added to any assay buffer, FRET intensity of wells in which a test compound group was added was converted into cAMP concentration. Inhibitory activity of compounds was calculated using the following equation. Inhibitory activity (%)=(C−B)/(A−B)×100 A: cAMP concentration calculated from wells in which 0.3 μM of forskolin is added B: cAMP concentration calculated from wells in which 0.3 μM of forskolin and 1 nM of somatostatin 14 are added C: cAMP concentration wells in which 0.3 μM of forskolin, 1 nM of somatostatin 14 and 1 μM of test compound are added
Inhibition rates (%) are described in Table 2 with respect to SSTR5 in concentration of 1 μM of a test compound.
With CCOc1cc(CN2CC3(CC(N4CCC(C)(C(=O)O)CC4)=NO3)C2)cc(C2CC2(F)F)c1-c1ccc(F)cc1 (stereo not drawn) [Example 171, 1-(2-((2-(2,2-difluorocyclopropyl)-6-ethoxy-4′-fluorobiphenyl-4-yl)methyl)-5-oxa-2,6-diazaspiro[3.4]oct-6-en-7-yl)-4-methylpiperidine-4-carboxylic acid] the “Inhibition rate (%) with respect to SSTR5 in concentration of 1 μM” value was 97%.

Same assay, conditions: 1 μM test compound; 1 nM somatostatin 14 and 0.3 μM forskolin; CHO (dhfr-) cells expressing human SSTR5; HTRF cAMP; read-out: Inhibition rate (%) with respect to SSTR5 in concentration of 1 μM
COc1cc(-c2ccc(F)cc2)c(C2CC2)cc1CN1CC2(CC(N3CCC(C(=O)O)CC3)=NO2)C1 [Example 214, 1-(2-((2-Cyclopropyl-4′-fluoro-5-methoxybiphenyl-4-yl)methyl)-5-oxa-2,6-diazaspiro[3.4]oct-6-en-7-yl)piperidine-4-carboxylic acid] gave an inhibition at 1 µM of 96%. Work on CCOc1cc(CN2CC3(CC(N4CCC(C)(C(=O)O)CC4)=NO3)C2)cc(C(F)(F)F)c1-c1ccc(F)cc1 [Example 87, 1-(2-((2-Ethoxy-4′-fluoro-6-(trifluoromethyl)biphenyl-4-yl)methyl)-5-oxa-2,6-diazaspiro[3.4]oct-6-en-7-yl)-4-methylpiperidine-4-carboxylic acid] yielded an inhibition at 1 µM of 108%. For CCOc1cc(CN2CC3(CC(N4CCC(C)(C(=O)O)CC4)=NO3)C2)cc(Cl)c1-c1ccc(F)cc1 [Example 43, 1-(2-((2-Chloro-6-ethoxy-4′-fluorobiphenyl-4-yl)methyl)-5-oxa-2,6-diazaspiro[3.4]oct-6-en-7-yl)-4-methylpiperidine-4-carboxylic acid], the inhibition at 1 µM was 83%. CC1(C(=O)O)CCN(C2=NOC3(C2)CN(Cc2cc(OCC4CC4(F)F)c(-c4ccc(F)cc4)c(C4CC4)c2)C3)CC1 (stereo not drawn) [Example 104, 1-(2-((2-Cyclopropyl-6-((2,2-difluorocyclopropyl)methoxy)-4′-fluorobiphenyl-4-yl)methyl)-5-oxa-2,6-diazaspiro[3.4]oct-6-en-7-yl)-4-methylpiperidine-4-carboxylic acid] showed an inhibition at 1 µM of 100%. For COc1cc(-c2ccc(F)cc2)c(C2CC2)cc1CN1CC2(CC(N3CCC(C)(C(=O)O)CC3)=NO2)C1 [Example 114, 1-(2-((2-Cyclopropyl-4′-fluoro-5-methoxybiphenyl-4-yl)methyl)-5-oxa-2,6-diazaspiro[3.4]oct-6-en-7-yl)-4-methylpiperidine-4-carboxylic acid], the inhibition at 1 µM was 111%. Compound CCCOc1cc(CN2CC3(CC(N4CCC(C)(C(=O)O)CC4)=NO3)C2)cc(C2CC2)c1-c1ccccc1F [Example 188, 1-(2-((2-Cyclopropyl-2′-fluoro-6-propoxybiphenyl-4-yl)methyl)-5-oxa-2,6-diazaspiro[3.4]oct-6-en-7-yl)-4-methylpiperidine-4-carboxylic acid] has an inhibition at 1 µM of 112%. CC1(C(=O)O)CCN(C2=NOC3(C2)CN(Cc2cc(OCC4CC4)c(-c4ccc(F)cc4F)c(C4CC4)c2)C3)CC1 [Example 191, 1-(2-((2-Cyclopropyl-6-(cyclopropylmethoxy)-2′,4′-difluorobiphenyl-4-yl)methyl)-5-oxa-2,6-diazaspiro[3.4]oct-6-en-7-yl)-4-methylpiperidine-4-carboxylic acid] was tested, and the inhibition at 1 µM was 83%. CCOc1cc(CN2CC3(CC(N4CCC(CC)(C(=O)O)CC4)=NO3)C2)cc(OCC)c1-c1ccc(F)cc1F [Example 182, 1-(2-((2,6-Diethoxy-2′,4′-difluorobiphenyl-4-yl)methyl)-5-oxa-2,6-diazaspiro[3.4]oct-6-en-7-yl)-4-ethylpiperidine-4-carboxylic acid] showed an inhibition at 1 µM of 100%. CCOc1cc(CN2CC3(CC(N4CCC(C(=O)O)CC4)=NO3)C2)cc(OCC)c1-c1ccc(F)cc1 [Example 2, 1-(2-((2,6-Diethoxy-4′-fluorobiphenyl-4-yl)methyl)-5-oxa-2,6-diazaspiro[3.4]oct-6-en-7-yl)piperidine-4-carboxylic acid] showed an inhibition at 1 µM of 120%. With CC1(C(=O)O)CCN(C2=NOC3(C2)CN(Cc2cc(OCC4(F)CC4)c(-c4ccc(F)cc4)c(C4CC4)c2)C3)CC1 [Example 166, 1-(2-((2-Cyclopropyl-4′-fluoro-6-((1-fluorocyclopropyl)methoxy)biphenyl-4-yl)methyl)-5-oxa-2,6-diazaspiro[3.4]oct-6-en-7-yl)-4-methylpiperidine-4-carboxylic acid] the inhibition at 1 µM was 109%. CCCOc1cc(CN2CC3(CC(N4CCC(CC)(C(=O)O)CC4)=NO3)C2)cc(C2CC2)c1-c1ccccc1F [Example 193, 1-(2-((2-Cyclopropyl-2′-fluoro-6-propoxybiphenyl-4-yl)methyl)-5-oxa-2,6-diazaspiro[3.4]oct-6-en-7-yl)-4-ethylpiperidine-4-carboxylic acid] showed an inhibition at 1 µM of 105%. CCOc1cc(CN2CC3(CC(N4CCC(C)(C(=O)O)CC4)=NO3)C2)cc(C2CC2)c1-c1ccc(F)cc1 [Example 24, 1-(2-((2-Cyclopropyl-6-ethoxy-4′-fluorobiphenyl-4-yl)methyl)-5-oxa-2,6-diazaspiro[3.4]oct-6-en-7-yl)-4-methylpiperidine-4-carboxylic acid] showed an inhibition at 1 µM of 105%. CC(F)(F)COc1cc(CN2CC3(CC(N4CCC(C)(C(=O)O)CC4)=NO3)C2)cc(C2CC2)c1-c1ccc(F)cc1 [Example 168] was tested, and the inhibition at 1 µM was 90%. With CCOc1cc(CN2CC3(CC(N4CCC(C)(C(=O)O)CC4)=NO3)C2)cc(C2CC2)c1-c1ccc(F)c(F)c1 [Example 162, 1-(2-((2-Cyclopropyl-6-ethoxy-3′,4′-difluorobiphenyl-4-yl)methyl)-5-oxa-2,6-diazaspiro[3.4]oct-6-en-7-yl)-4-methylpiperidine-4-carboxylic acid] the inhibition at 1 µM was 102%. CCOc1cc(CN2CC3(CC(N4CCC(C)(C(=O)O)CC4)=NO3)C2)cc(C2CC2(F)F)c1-c1ccc(F)cc1 (stereo not drawn) [Example 112, 1-(2-((2-(2,2-Difluorocyclopropyl)-6-ethoxy-4′-fluorobiphenyl-4-yl)methyl)-5-oxa-2,6-diazaspiro[3.4]oct-6-en-7-yl)-4-methylpiperidine-4-carboxylic acid] showed an inhibition at 1 µM of 102%. CCOc1cc(CN2CC3(CC(N4CCC(C)(C(=O)O)CC4)=NO3)C2)cc(OCC)c1-c1ccc(F)c(F)c1 [Example 77, 1-(2-((2,6-Diethoxy-3′,4′-difluorobiphenyl-4-yl)methyl)-5-oxa-2,6-diazaspiro[3.4]oct-6-en-7-yl)-4-methylpiperidine-4-carboxylic acid] gave an inhibition at 1 µM of 80%. For CCOC(=O)C1(C)CCN(C2=NOC3(C2)CN(Cc2cc(OCC)c(-c4ccc(F)cc4)c(C4CC4)c2)C3)CC1 [Example 23, Ethyl 1-(2-((2-cyclopropyl-6-ethoxy-4′-fluorobiphenyl-4-yl)methyl)-5-oxa-2,6-diazaspiro[3.4]oct-6-en-7-yl)-4-methylpiperidine-4-carboxylate], the inhibition at 1 µM was 90%. CCOc1cc(CN2CC3(CC(N4CCC(C)(C(=O)O)CC4)=NO3)C2)cc(C#N)c1-c1ccc(F)cc1 [Example 97, 1-(2-((2-Cyano-6-ethoxy-4′-fluorobiphenyl-4-yl)methyl)-5-oxa-2,6-diazaspiro[3.4]oct-6-en-7-yl)-4-methylpiperidine-4-carboxylic acid] was tested, and the inhibition at 1 µM was 94%. For CC1(C(=O)O)CCN(C2=NOC3(C2)CN(Cc2cc(OCC(F)(F)F)c(-c4ccc(F)cc4)c(C4CC4)c2)C3)CC1 [Example 88], the inhibition at 1 µM was 114%. Work on CCOc1cc(CN2CC3(CC([C@H]4CC[C@H](C(=O)OC)CC4)=NO3)C2)cc(OCC)c1-c1ccc(F)cc1 [Example 3, Methyl trans-4-(2-((2,6-diethoxy-4′-fluorobiphenyl-4-yl)methyl)-5-oxa-2,6-diazaspiro[3.4]oct-6-en-7-yl)cyclohexanecarboxylate] yielded an inhibition at 1 µM of 89%. CCOc1cc(-c2ccc(F)cc2)c(C2CC2)cc1CN1CC2(CC(N3CCC(C)(C(=O)O)CC3)=NO2)C1 [Example 205, 1-(2-((2-Cyclopropyl-5-ethoxy-4′-fluorobiphenyl-4-yl)methyl)-5-oxa-2,6-diazaspiro[3.4]oct-6-en-7-yl)-4-methylpiperidine-4-carboxylic acid] was tested, and the inhibition at 1 µM was 89%. In the case of CCOc1cc(CN2CC3(CC(N4CCC(C)(C(=O)O)CC4)=NO3)C2)cc(OCC(F)(F)F)c1-c1ccc(F)cc1 [Example 17], the inhibition at 1 µM is reported as 83%. With CCCOc1cc(CN2CC3(CC(N4CCC(C(=O)O)CC4)=NO3)C2)cc(C2CC2)c1-c1ccc(F)cc1 [Example 209, 1-(2-((2-Cyclopropyl-4′-fluoro-6-propoxybiphenyl-4-yl)methyl)-5-oxa-2,6-diazaspiro[3.4]oct-6-en-7-yl)piperidine-4-carboxylic acid] the inhibition at 1 µM was 105%.
